Two molecules from patent US20250179166A1, “TREATMENT OF BRAIN METASTASIS” (Ramot at Tel-Aviv University Ltd., priority 2022, published 2025) can be followed below.

Experiment [1] concerns 4T1 breast cancer brain metastases. Nature of the experiment: Orthotopic breast cancer brain metastases (BCBM) model. It counts as in vivo, BALB/C mice. Conditions: compared to the control group. The method, then:
Breast Cancer Brain Metastases (BCBM). To generate primary breast rumors prior to BCBM, 4T1 cells (3×10^5 cells/100 μl) were inoculated orthotopically into the mammary fat pad of immunocompetent BALB/C mice. Seven days later, primary lesions were resected. One week post primary tumor resection, 4T1 cells (2×10^4 cells/2 μl) were intracranially inoculated stereotactically to the striatum of the same mice (previously bearing the primary tumors). […] Mice body weight change was monitored three times a week, and tumor growth was followed using 4.7T/1H magnetic resonance imaging (MRI, MR Solutions, UK). PBMCs activation.

The test system of experiment [2] is MDA-MB-231 spheroids. Nature of the experiment: Breast cancer 3D tumor spheroids. The note with it: BC cells alone or with astrocytes, microglia and PBMCs.
Experimental: Multicellular tumor spheroids (MCTS). MCTS were prepared using the hanging-drop method as previously shown (24). […] The sprouting of MCTS was analyzed using ImageJ 1.52v software, and the results were presented as total area covered or % of total area covered per spheroid (pixel density) per well.
The plates were incubated for 7 days at 37° C. in 5% CO2 and cell fluorescence was followed and quantified by Cytation™ C10.
The subject of experiment [3] is WM115 melanoma cells. Nature of the experiment: Wound healing migration assay. It counts as cell-based, human. The note with it: vs cells in astrocytes SFM. On the procedure:
(§1) Wound Healing Assay. To study the role of MCP-1 in mediating melanoma cells migration, (WM115 and 131/4-5B1 cells) (5×10^4 cells/well) were plated onto 96-well ImageLock tissue culture plate and allowed to grow until confluence. Next, a wound was created in each well using a 96-pin wound-making tool (WoundMaker, Essen BioScience, Sartorius, USA), and dislodged cells were washed with PBS. Melanoma cells were treated for 48 h with astrocytes CM, human astrocytes CM treated with siRNA:PEI polyplexes (500 nM siRNA targeting MCP-1 or scramble siRNA), astrocytes CM supplemented with 10 µg/mL anti-MCP-1 neutralizing antibody, astrocytes SFM supplemented with 1 μg/mL rh/mMCP-1. To monitor wound closure, the plate was placed in the IncuCyte™ ZOOM Live Cell Imaging system (Essen Bioscience, Sartorius, USA) and phase contrast images were taken every 2 h intervals over a course of 48 h using 10× objective. Results were calculated by the IncuCyte™ Software and presented as relative wound density (relative to the background density of the wound at time 0).

For experiment [4], the system named is 131/4-5B1 melanoma cells. Nature of the experiment: Wound healing migration assay. It counts as cell-based, human. The note with it: vs cells in astrocytes SFM. The method, then:
as §1

In experiment [5] the test system is melanoma cells (D4M.3A, B16-F10, A375, 131/4-5B1 and WM115). The experiment can be described thus: Transwell migration of melanoma cells towards bindarit-treated astrocytes. The note with it: addition of rh-MCP-1; p=0.006 (astrocytes), p=0.115 (CM).
Experimental: Transwell® Migration Assay. […] In order to assess melanoma migration in co-culture with astrocytes, human astrocytes (1×10^5 cells/well) or murine astrocytes (2×10^5 cells/well) were seeded in the lower chambers of the Transwell® inserts. […] All migrated cells were then fixed and stained (Hema 3 Stain System; Fisher Diagnostics, fixed and stained (Hema 3 Stain System; Fisher Diagnostics, USA). The stained migrated cells were imaged using EVOS FL Auto microscope (Life Technologies, USA) using 10× objective, brightfield illumination.
In experiment [6] the test system is MDA-MB-231 cells. Nature of the experiment: Breast cancer Transwell migration. Conditions: vs control.

`COc1ccc(C2CC(c3c(O)cc(C)oc3=O)=NCCS2)c(OC)c1` (stereo not drawn) [SELPi, 3-[7-(2,4-Dimethoxyphenyl)-2,3,6,7-tetrahydro-1,4-thiazepin-5-yl]-4-hydroxy-6-methyl-2H-pyran-2-one]: in experiment [1], the “systemic disease relapse (primary tumor recurrence or extracranial metastases)” value is “did not show any improvement in relapse”. For the same molecule, the spheroid size result in experiment [2] is recorded as “significant decrease”.

“rh-MCP-1: Recombinant human/murine MCP-1”: the “increase of melanoma cell migration (wound healing)” value in experiment [3] is on record as 5%; in experiment [4], 27%. In addition, the “rescue of melanoma cell migration in presence of bindarit-treated astrocytes” value in experiment [5] is given as “rescued the inhibition of melanoma cell migration”. Further, the “MDA-MB-231 migration towards MCP-1 recombinant protein” value in experiment [6] is recorded as “migrated more”.
